Source: ChEMBL document CHEMBL1641450, “Non-covalent inhibitors of rhinovirus 3C protease” (Bioorg Med Chem Lett, 2011)
≈ marks a conversion by molar mass, not a printed value. Calls of active or inactive are those of the source. The calls are words filed in the database; no cut-off is given here.

Key:
rhinovirus A2 [1] = assay: Inhibition of Human rhinovirus 2 purified 3C protease at 100 uM preincubated for 30 mins measured after 1 hrs by FRET assay
[2] = Inhibition of Human rhinovirus 2 purified 3C protease preincubated for 30 mins measured after 1 hrs by FRET assay; set-up: species or system rhinovirus A2
[3] = Binding affinity to Human rhinovirus 2 purified 15N-labeled 3C protease after 50 mins by NMR assay; set-up: species or system rhinovirus A2
rhinovirus A2 [4] = assay: Binding affinity to Human rhinovirus 2 purified 15N-labeled 3C protease at 500 uM after 50 mins by NMR assay
[5] = Solubility of the compound; assay type: physicochemical

SMILES | inhibition (rhinovirus A2 [1]) [%] | pIC50 [2] | pKd [3] | also measured
CC(=O)c1ccc2[nH]c(-c3cccnc3)cc(=O)c2c1 | 25 |  |  | 
CCOC(=O)/C=C/c1ccc2[nH]c(-c3cccnc3)cc(=O)c2c1 | > 90 | 5.3 |  | 
O=C(O)/C=C/c1ccc2[nH]c(-c3cccnc3)cc(=O)c2c1 | 70 | 4.2 |  | 
O=Cc1ccc2[nH]c(-c3cccnc3)cc(=O)c2c1 | > 95 | 6 |  | 
O=c1cc(-c2ccccc2)oc2ccccc12 [FLAVONE] |  |  | 3 | 
CNC(=O)c1ccc2c(=O)cc(-c3cccnc3)[nH]c2c1 | 40 |  |  | 
Nc1cc(-c2ccccc2)nc2ccccc12 |  |  | 3 | 
Cc1ccc2c(=O)cc(-c3cccnc3)[nH]c2c1 | 40 |  |  | 
O=c1cc(-c2cccnc2)[nH]c2cc(C(O)c3ccccc3)ccc12 (racemic) | 80 | 4.7 |  | 
CNC(=O)Cc1ccc2c(=O)cc(-c3cccnc3)[nH]c2c1 | 45 |  |  | 
N#Cc1ccc2[nH]c(-c3cccnc3)cc(=O)c2c1 | 50 | 4 |  | 
CCOC(=O)CCc1ccc2[nH]c(-c3cccnc3)cc(=O)c2c1 | 0 |  |  | Activity (rhinovirus A2 [4]): inactive
Cc1cc2[nH]c(-c3ccccc3)cc(=O)n2n1 | 43 |  |  | solubility [5]: > 900 µM
Oc1cc(-c2ccccc2)nc2ccccc12 |  |  | 3.7 | solubility [5]: 100 µM (≈ 22.1 µg/mL)
c1ccc(-c2ccc3ccccc3n2)cc1 [2-PHENYLQUINOLINE] |  |  | < 3 | 
O=c1cc(-c2cccnc2)[nH]c2ccccc12 | 35 |  | 3.5 | solubility [5]: > 1300 µM
COc1cc(-c2ccccc2)nc2ccccc12 |  |  | < 3 | 
COc1ccc2c(=O)cc(-c3cccnc3)[nH]c2c1 | < 10 |  |  | 
Cn1c(-c2ccccc2)cc(=O)c2ccccc21 |  |  | 3 | 
O=c1cc(-c2cccnc2)[nH]c2cc(Cc3ccccc3)ccc12 | 100 | 5 |  | solubility [5]: 1 µM (≈ 0.312 µg/mL)
